In patent USH810H, “Biologically active amides” (priority 1976, dated 1990):

Tested on: isolated mouse vas deferens
Type: cell-based
Protocol: The compounds were examined for their ability to inhibit neurally evoked contractions of the isolated mouse vas deferens preparation (method of Hughes et al, Brain Research, 88 (1975) 296, using pulses at 0.1 Hz).
The heights of the five contractions that immediately preceded the addition of the first "dose" of test compound were measured and their mean calculated. The resultant mean contraction associated with a particular bath concentration of test compound was calculated from the heights of the 6th, 7th, 8th, 9th and 10th contractions after the addition of the appropriate "dose" of test compound, i.e. the five contractions that immediately preceded the subsequent "dose" or washout.
Generally at least two cumulative dose response curves were constructed and a mean D50 calculated.

SMILES | Reversal of the inhibition of the contractions by naloxone | Relative Potency (Morphine) (RP=antilog[logD50(MORPHINE) - logD50(TEST COMPOUND)], morphine = 1.0)
CN1CC[C@]23c4c5ccc(O)c4O[C@H]2[C@@H](O)C=C[C@H]3[C@H]1C5 [Morphine] | Reversal of the inhibition of the contractions was effected | –
COC(=O)[C@H](CCSC)NC(=O)[C@H](Cc1ccccc1)NC(=O)CNC(=O)[C@@H](C)NC(=O)[C@@H](N)Cc1ccc(O)cc1 [5(b), H.Tyr. --D-Ala.Gly.Phe.Met.OMe] | – | 94
